According to US12331026B2 (NiKang Therapeutics, Inc., priority 2022, dated 2025):

Biological target: T1, CDK2 (Homo sapiens, UniProt P24941)
T1 construct: endogenous in cells; host or cells: OVCAR3 cells
Assay: Phospho-RB measurement in OVCAR3 cells (HTRF phospho-RB S807/811)
Type: cell-based
Settings: phosphorylation of RB protein at S807/811, HTRF, 24 h compound treatment, 0.3 to 10,000 nM, read-out: pRb (uM)
Method in brief: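 IC50 values come from four-parameter logistic fits of the DMSO-normalised 665/620 nm TR-FRET ratio for phospho-RB (S807/811). Antibody detection ran 4 h at room temperature.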

IC50 [µM] | SMILES
0.34 | C[C@@H]1CN(C2CC(F)(F)C2)C[C@@H](C)N1c1nc(-c2cccc(NS(=O)(=O)c3c(F)cccc3F)c2F)c(-c2ccnc(NC3CC4(C3)CS(=O)(=O)C4)n2)s1 [Example 61, N-(3-(2-((2R,6R)-4-(3,3-difluorocyclobutyl)-2,6-dimethylpiperazin-1-yl)-5-(2-((2,2-dioxido-2-thiaspiro[3.3]heptan-6-yl)amino)-pyrimidin-4-yl)thiazol-4-yl)-2-fluorophenyl)-2,6-difluoro-benzenesulfonamide]
0.15 | O=S1(=O)CC2(CC(Nc3nccc(-c4sc(N5C6CCC5COC6)nc4-c4cccc(NS(=O)(=O)c5c(F)cccc5F)c4F)n3)C2)C1 [Example 2, N-(3-(2-(3-oxa-8-azabicyclo[3.2.1]octan-8-yl)-5-(2-((2,2-dioxido-2-thiaspiro[3.3]heptan-6-yl)amino)pyrimidin-4-yl)thiazol-4-yl)-2-fluorophenyl)-2,6-difluorobenzenesulfonamide]
0.87 | O=S1(=O)C[C@@H]2[C@H](C1)[C@@H]2Nc1nccc(-c2sc(C34CC5CC(CC(C5)C3)C4)nc2-c2cccc(NS(=O)(=O)c3c(F)cccc3F)c2F)n1 [Example 76, N-(3-(2-((3R,5R,7R)-adamantan-1-yl)-5-(2-(((1R,5S,6s)-3,3-dioxido-3-thiabicyclo[3.1.0]hexan-6-yl)amino)pyrimidin-4-yl)thiazol-4-yl)-2-fluorophenyl)-2,6-difluorobenzenesulfonamide]
1.13 | CC1(C#N)CC(N2CC3CCC(C2)N3c2nc(-c3cccc(NS(=O)(=O)c4c(F)cccc4F)c3F)c(-c3ccnc(NC4CC5(C4)CS(=O)(=O)C5)n3)s2)C1 (stereo not drawn) [Example 49, N-(3-(2-(3-(3-cyano-3-methylcyclobutyl)-3,8-diazabicyclo-[3.2.1]octan-8-yl)-5-(2-((2,2-dioxido-2-thiaspiro[3.3]heptan-6-yl)amino)pyrimidin-4-yl)thiazol-4-yl)-2-fluorophenyl)-2,6-difluorobenzenesulfonamide]
0.04 | C[C@H]1CN(C)C[C@H](C)N1c1nc(-c2cccc(NS(=O)(=O)c3c(F)cccc3C(F)(F)F)c2F)c(-c2ccnc(N[C@H]3[C@@H]4CS(=O)(=O)C[C@@H]43)n2)s1 [Example 124, N-(3-(5-(2-(((1R,5S,6r)-3,3-dioxido-3-thiabicyclo[3.1.0]hexan-6-yl)amino)pyrimidin-4-yl)-2-((2S,6S)-2,4,6-trimethylpiperazin-1-yl)thiazol-4-yl)-2-fluorophenyl)-2-fluoro-6-(trifluoromethyl)benzenesulfonamide]
0.35 | O=S1(=O)CC2(CC(Nc3nccc(-c4sc(C56CC(C(F)(F)F)(C5)C6)nc4-c4cccc(NS(=O)(=O)c5c(F)cccc5F)c4F)n3)C2)C1 [Example 39, N-(3-(5-(2-((2,2-dioxido-2-thiaspiro[3.3]heptan-6-yl)amino)-pyrimidin-4-yl)-2-(3-(trifluoromethyl)bicyclo[1.1.1]pentan-1-yl)thiazol-4-yl)-2-fluorophenyl)-2,6-difluorobenzenesulfonamide]
0.08 | CS(=O)(=O)[C@H]1CC[C@H](Nc2nccc(-c3sc(C45CC(C(F)F)(C4)C5)nc3-c3cccc(NS(=O)(=O)c4c(F)cccc4C(F)(F)F)c3F)n2)CC1 [Example 134, N-(3-(2-(3-(difluoromethyl)bicyclo[1.1.1]pentan-1-yl)-5-(2-(((1r,4r)-4-(methylsulfonyl)cyclohexyl)amino)pyrimidin-4-yl)thiazol-4-yl)-2-fluorophenyl)-2-fluoro-6-(trifluoromethyl)benzenesulfonamide]
0.07 | O=S1(=O)C[C@@H]2[C@H](C1)[C@H]2Nc1nccc(-c2sc(C34CC(C3)C4)nc2-c2cccc(NS(=O)(=O)c3c(F)cccc3OC(F)F)c2F)n1 [Example 113, N-(3-(2-(bicyclo[1.1.1]pentan-1-yl)-5-(2-(((1R,5S,6r)-3,3-dioxido-3-thiabicyclo[3.1.0]hexan-6-yl)amino)pyrimidin-4-yl)thiazol-4-yl)-2-fluorophenyl)-2-(difluoromethoxy)-6-fluorobenzenesulfonamide]
0.24 | O=S1(=O)C[C@@H]2[C@H](C1)[C@H]2Nc1nccc(-c2sc(C34CC5CC(CC(C5)C3)C4)nc2-c2cccc(NS(=O)(=O)c3c(F)cccc3F)c2F)n1 [Example 77, N-(3-(2-((3R,5R,7R)-adamantan-1-yl)-5-(2-(((1R,5S,6r)-3,3-dioxido-3-thiabicyclo[3.1.0]hexan-6-yl)amino)pyrimidin-4-yl)thiazol-4-yl)-2-fluorophenyl)-2,6-difluorobenzenesulfonamide]
0.12 | CS(=O)(=O)[C@H]1CC[C@H](Nc2nccc(-c3sc(C4(C(F)(F)F)CC4)nc3-c3cccc(NS(=O)(=O)c4c(Cl)cccc4C(F)(F)F)c3F)n2)CC1 [Example 133, 2-chloro-N-(2-fluoro-3-(5-(2-(((1r,4r)-4-(methylsulfonyl)-cyclohexyl)amino)pyrimidin-4-yl)-2-(1-(trifluoromethyl)-cyclopropyl)thiazol-4-yl)phenyl)-6-(trifluoromethyl)benzene-sulfonamide]
0.48 | O=C1CC2CCC(C1)N2c1nc(-c2cccc(NS(=O)(=O)c3c(F)cccc3F)c2F)c(-c2ccnc(NC3CC4(C3)CS(=O)(=O)C4)n2)s1 [Example 17, N-(3-(5-(2-((2,2-dioxido-2-thiaspiro[3.3]heptan-6-yl)amino)pyrimidin-4-yl)-2-(3-oxo-8-azabicyclo[3.2.1]octan-8-yl)thiazol-4-yl)-2-fluorophenyl)-2,6-difluorobenzenesulfonamide]
0.42 | O=S1(=O)CC2(CC(Nc3nccc(-c4sc(N5CC6CCC(C5)N6c5ccccn5)nc4-c4cccc(NS(=O)(=O)c5c(F)cccc5F)c4F)n3)C2)C1 [Example 37, N-(3-(5-(2-((2,2-dioxido-2-thiaspiro[3.3]heptan-6-yl)amino)-pyrimidin-4-yl)-2-(8-(pyridin-2-yl)-3,8-diazabicyclo[3.2.1]octan-3-yl)thiazol-4-yl)-2-fluorophenyl)-2,6-difluorobenzenesulfonamide]
0.11 | C[C@@H]1COC[C@@H](C)N1c1nc(-c2cccc(NS(=O)(=O)c3c(F)cccc3F)c2F)c(-c2ccnc(NC3CC4(C3)CS(=O)(=O)C4)n2)s1 [Example 56, N-(3-(2-((3R,5R)-3,5-dimethylmorpholino)-5-(2-((2,2-dioxido-2-thiaspiro[3.3]heptan-6-yl)amino)pyrimidin-4-yl)thiazol-4-yl)-2-fluorophenyl)-2,6-difluorobenzenesulfonamide]
0.19 | O=S1(=O)CC2(CC(Nc3nccc(-c4sc(N5C6CCC5CN(C5CC(F)(F)C5)C6)nc4-c4cccc(NS(=O)(=O)c5c(F)cccc5C(F)F)c4F)n3)C2)C1 [Example 50, N-(3-(2-(3-(3,3-difluorocyclobutyl)-3,8-diazabicyclo[3.2.1]octan-8-yl)-5-(2-((2,2-dioxido-2-thiaspiro[3.3]heptan-6-yl)amino)pyrimidin-4-yl)thiazol-4-yl)-2-fluorophenyl)-2-(difluoromethyl)-6-fluorobenzenesulfonamide]
4.51 | O=S1(=O)C[C@@H]2[C@H](C1)[C@H]2Nc1nccc(-c2sc(C34CC(C3)C4)nc2-c2cccc(NS(=O)(=O)c3c(OC(F)F)cccc3C(F)(F)F)c2F)n1 [Example 125, N-(3-(2-(bicyclo[1.1.1]pentan-1-yl)-5-(2-(((1R,5S,6r)-3,3-dioxido-3-thiabicyclo[3.1.0]hexan-6-yl)amino)pyrimidin-4-yl)thiazol-4-yl)-2-fluorophenyl)-2-(difluoromethoxy)-6-(trifluoromethyl)-benzenesulfonamide]
0.08 | CS(=O)(=O)[C@H]1CC[C@H](Nc2nccc(-c3sc(C4(C(F)(F)F)CC4)nc3-c3cccc(NS(=O)(=O)c4c(F)cccc4C(F)(F)F)c3F)n2)CC1 [Example 104, 2-fluoro-N-(2-fluoro-3-(5-(2-(((1r,4r)-4-(methylsulfonyl)-cyclohexyl)amino)pyrimidin-4-yl)-2-(1-(trifluoromethyl)-cyclopropyl)thiazol-4-yl)phenyl)-6-(trifluoromethyl)benzenesulfonamide]
0.04 | O=S1(=O)CC2(CC(Nc3nccc(-c4sc(C5(C(F)F)CCC5)nc4-c4cccc(NS(=O)(=O)c5c(F)cccc5C(F)(F)F)c4F)n3)C2)C1 [Example 83, N-(3-(2-(1-(difluoromethyl)cyclobutyl)-5-(2-((2,2-dioxido-2-thiaspiro[3.3]heptan-6-yl)amino)pyrimidin-4-yl)thiazol-4-yl)-2-fluorophenyl)-2-fluoro-6-(trifluoromethyl)benzenesulfonamide]
0.06 | O=S1(=O)CC2(CC(Nc3nccc(-c4sc(C5(C(F)F)CC5)nc4-c4cccc(NS(=O)(=O)c5c(F)cccc5C(F)(F)F)c4F)n3)C2)C1 [Example 80, N-(3-(2-(1-(difluoromethyl)cyclopropyl)-5-(2-((2,2-dioxido-2-thiaspiro[3.3]heptan-6-yl)amino)pyrimidin-4-yl)thiazol-4-yl)-2-fluorophenyl)-2-fluoro-6-(trifluoromethyl)benzenesulfonamide]
